Source: patent publication US5328902A, “7-(substituted)-9-[(substituted glycyl)amido]-6-demethyl-6-deoxytetracyclines” (American Cyanamid Co., priority 1992, dated 1994)
In brackets after ≈: the same amount, converted by molar mass.

Legend:
Type in all cases: cell-based
[1] = test system: E. coli UBMS 88-1 Tet B; assay: microbe, parasite or virus in culture; settings: E. coli UBMS 88-1 Tet B; 18 hours at 35° C.
[2] = test system: E. coli MC 4100 Tet sens.; assay: MIC, agar dilution
[3] = test system: E. coli PRP1 Tet A; assay: microbe, parasite or virus in culture; settings: E. coli PRP1 Tet A
[4] = test system: E. coli MC 4100 TNIOC Tet B; assay: microbe, parasite or virus in culture; settings: E. coli MC 4100 TNIOC Tet B
[5] = test system: E. coli J3272 Tet C; assay: microbe, parasite or virus in culture; settings: E. coli J3272 Tet C
[6] = test system: E. coli UBMS 89-1 Tet M; assay: microbe, parasite or virus in culture; settings: E. coli UBMS 89-1 Tet M
[7] = test system: E. coli UBMS 89-2 Tet sens.; assay: MIC, agar dilution; settings: E. coli UBMS 89-2 Tet sens.
[8] = test system: E. coli J2175; assay: MIC, agar dilution; settings: E. coli J2175
[9] = test system: E. coli BAJ9003 IMP MUT; assay: microbe, parasite or virus in culture; settings: E. coli BAJ9003 IMP MUT
[10] = test system: E. coli UBMS 90-4 Tet M; assay: microbe, parasite or virus in culture; settings: E. coli UBMS 90-4 Tet M
[11] = test system: E. coli UBMS 90-5; assay: MIC, agar dilution
[12] = test system: E. coli #311 (MP); assay: MIC, agar dilution; settings: E. coli #311 (MP)
[13] = test system: E. coli ATCC 25922; assay: MIC, agar dilution; settings: E. coli ATCC 25922
[14] = test system: E. coli J3272 Tet D; assay: microbe, parasite or virus in culture; settings: E. coli J3272 Tet D
[15] = test system: S. mariescens FPOR 8733; assay: MIC, agar dilution
[16] = test system: X. maltophilia NEMC 87210; assay: MIC, agar dilution
[17] = test system: Ps. acruginosa ATCC 27853; assay: MIC, agar dilution; settings: Ps. acruginosa ATCC 27853
[18] = test system: S. aureus NEMC 8769; assay: MIC, agar dilution; settings: S. aureus NEMC 8769
[19] = test system: S. aureus UBMS 88-4; assay: MIC, agar dilution; settings: S. aureus UBMS 88-4
[20] = test system: S. aureus UBMS 88-5 Tet M; assay: microbe, parasite or virus in culture; settings: S. aureus UBMS 88-5 Tet M
[21] = test system: S. aureus UBMS 88-7 Tet K; assay: microbe, parasite or virus in culture; settings: S. aureus UBMS 88-7 Tet K
[22] = test system: S. aureus UBMS 90-1 Tet M; assay: microbe, parasite or virus in culture; settings: S. aureus UBMS 90-1 Tet M
[23] = test system: S. aureus UBMS 90-3; assay: MIC, agar dilution; settings: S. aureus UBMS 90-3
[24] = test system: S. aureus UBMS 90-2 Tet M; assay: microbe, parasite or virus in culture; settings: S. aureus UBMS 90-2 Tet M
[25] = test system: S. aureus IVES 2943; assay: MIC, agar dilution; settings: S. aureus IVES 2943
[26] = test system: S. aureus ROSE (MP); assay: MIC, agar dilution; settings: S. aureus ROSE (MP)
[27] = test system: S. aureus SMITH (MP); assay: MIC, agar dilution; settings: S. aureus SMITH (MP)
[28] = test system: S. aureus IVES 1 983; assay: MIC, agar dilution; settings: S. aureus IVES 1 983
[29] = test system: S. aureus ATCC 29213; assay: MIC, agar dilution; settings: S. aureus ATCC 29213
[30] = test system: S. hemolyticus AVHAH 88-3; assay: MIC, agar dilution; settings: S. hemolyticus AVHAH 88-3
[31] = test system: Enterococcus 12201; assay: MIC, agar dilution; settings: Enterococcus 12201
[32] = test system: E. faecalis ATCC 29212; assay: MIC, agar dilution; settings: E. faecalis ATCC 29212

| SMILES | MIC [1] [µg/mL] | MIC [2] [µg/mL] | MIC [3] [µg/mL] | MIC [4] [µg/mL] | MIC [5] [µg/mL] | MIC [6] [µg/mL] | MIC [7] [µg/mL] | MIC [8] [µg/mL] | MIC [9] [µg/mL] | MIC [10] [µg/mL] | MIC [11] [µg/mL] | MIC [12] [µg/mL] | MIC [13] [µg/mL] | MIC [14] [µg/mL] | MIC [15] [µg/mL] | MIC [16] [µg/mL] | MIC [17] [µg/mL] | MIC [18] [µg/mL] | MIC [19] [µg/mL] | MIC [20] [µg/mL] | further results |
| --- | --- | --- | --- | --- | --- | --- | --- | --- | --- | --- | --- | --- | --- | --- | --- | --- | --- | --- | --- | --- | --- |
| C#CCN(C)CC(=O)Nc1cc(N(C)C)c2c(c1O)C(=O)C1=C(O)[C@]3(O)C(=O)C(C(N)=O)=C(O)[C@@H](N(C)C)[C@@H]3C[C@@H]1C2 [V, [4S-(4alpha,12aalpha)]-4,7-Bis(dimethylamino)-1,4,4a,5,5a,6,11,12a-octahydro-3,10, 12,12a-tetrahydroxy-9-[[[methyl-2-propynylamino]acetyl]amino]-1,11-dioxo-2-naphthacenecarboxamide] | > 32 | 32 (≈ 55 µM) | > 32 | > 32 | > 32 | > 32 | > 32 | > 32 | 4 (≈ 6.88 µM) | > 32 | > 32 | > 32 | > 32 | > 32 | > 32 | 32 (≈ 55 µM) | > 32 | 4 (≈ 6.88 µM) | 4 (≈ 6.88 µM) | 8 (≈ 13.8 µM) | MIC [21]: 32 µg/mL (≈ 55 µM); MIC [22]: 16 µg/mL (≈ 27.5 µM); MIC [23]: 4 µg/mL (≈ 6.88 µM); MIC [24]: 8 µg/mL (≈ 13.8 µM); MIC [25]: > 32 µg/mL; MIC [26]: > 32 µg/mL; MIC [27]: 4 µg/mL (≈ 6.88 µM); MIC [28]: > 32 µg/mL; MIC [29]: 4 µg/mL (≈ 6.88 µM); MIC [30]: 32 µg/mL (≈ 55 µM); MIC [31]: 8 µg/mL (≈ 13.8 µM); MIC [32]: 4 µg/mL (≈ 6.88 µM) |
| CN(C)c1cc(NC(=O)CNN2CCCCC2)c(O)c2c1CC1CC3C(N(C)C)C(O)=C(C(N)=O)C(=O)C3(O)C(O)=C1C2=O (stereo not drawn) [W, [4S-(4alpha,12aalpha)]-4,7-Bis(dimethylamino)-1,4,4a,5,5a,6,11,12a-octahydro-3,10, 12,12a-tetrahydroxy-hydroxy-1,11-dioxo-9[[(1-piperidinylamino)acetyl]amino]-2naphthacenecarboxamide] | > 32 | 32 (≈ 52.2 µM) | > 32 | > 32 | > 32 | > 32 | > 32 | > 32 | 16 (≈ 26.1 µM) | > 32 | > 32 | > 32 | > 32 | > 32 | > 32 | > 32 | > 32 | > 32 | > 32 | > 32 | MIC [21]: > 32 µg/mL; MIC [22]: > 32 µg/mL; MIC [23]: 16 µg/mL (≈ 26.1 µM); MIC [24]: > 32 µg/mL; MIC [25]: > 32 µg/mL; MIC [26]: > 32 µg/mL; MIC [27]: 16 µg/mL (≈ 26.1 µM); MIC [28]: > 32 µg/mL; MIC [29]: 32 µg/mL (≈ 52.2 µM); MIC [30]: > 32 µg/mL; MIC [31]: > 32 µg/mL; MIC [32]: > 32 µg/mL |
| CN(C)c1cc(NC(=O)CNOCc2ccccc2)c(O)c2c1C[C@H]1C[C@H]3[C@H](N(C)C)C(O)=C(C(N)=O)C(=O)[C@@]3(O)C(O)=C1C2=O [X, [4S-(4-alpha,12aalpha)]-4,7-Bis(dimethylamino)-1,4,4a,5,5a,6,11,12a-octahydro-3,10, 12,12a-tetrahydroxy-1,11-dioxo-9-[[[(phenylmethoxy)amino]acetyl]amino]-2-naphthacenecarboxamide] | > 32 | 4 (≈ 6.29 µM) | > 32 | > 32 | > 32 | 16 (≈ 25.2 µM) | > 32 | > 32 | 1 (≈ 1.57 µM) | > 32 | > 32 | 16 (≈ 25.2 µM) | 16 (≈ 25.2 µM) | 16 (≈ 25.2 µM) | > 32 | 16 (≈ 25.2 µM) | > 32 | 1 (≈ 1.57 µM) | 1 (≈ 1.57 µM) | 2 (≈ 3.15 µM) | MIC [21]: 4 µg/mL (≈ 6.29 µM); MIC [22]: 2 µg/mL (≈ 3.15 µM); MIC [23]: 1 µg/mL (≈ 1.57 µM); MIC [24]: 2 µg/mL (≈ 3.15 µM); MIC [25]: 8 µg/mL (≈ 12.6 µM); MIC [26]: 16 µg/mL (≈ 25.2 µM); MIC [27]: 0.5 µg/mL (≈ 0.787 µM); MIC [28]: 8 µg/mL (≈ 12.6 µM); MIC [29]: 1 µg/mL (≈ 1.57 µM); MIC [30]: 4 µg/mL (≈ 6.29 µM); MIC [31]: 4 µg/mL (≈ 6.29 µM); MIC [32]: 1 µg/mL (≈ 1.57 µM) |
